From PubChem BioAssay (NCI)
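Abbreviation: GI50, concentration required for 50% inhibition of growth. TGI denotes the concentration required for complete inhibition of growth.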

Experiments:
Test in all cases: inhibition of tumour cell growth, NCI panel, 384-well format
786-0 renal = test system: 786-0 renal
A498 renal = test system: A498 renal
A549 NSCLC = test system: A549 NSCLC
ACHN renal = test system: ACHN renal
BT-549 breast = test system: BT-549 breast
CAKI-1 renal = test system: CAKI-1 renal
CCRF-CEM leukemia = test system: CCRF-CEM leukemia
COLO 205 colon = test system: COLO 205 colon
DU-145 prostate = test system: DU-145 prostate
EKVX NSCLC = test system: EKVX NSCLC
HCC-2998 colon = test system: HCC-2998 colon
HCT-116 colon = test system: HCT-116 colon
HCT-15 colon = test system: HCT-15 colon
HL-60(TB) leukemia = test system: HL-60(TB) leukemia
HOP-62 NSCLC = test system: HOP-62 NSCLC
HOP-92 NSCLC = test system: HOP-92 NSCLC
HS 578T breast = test system: HS 578T breast
HT29 colon = test system: HT29 colon
IGROV1 ovarian = test system: IGROV1 ovarian
K-562 leukemia = test system: K-562 leukemia
KM12 colon = test system: KM12 colon
LOX IMVI melanoma = test system: LOX IMVI melanoma
M14 melanoma = test system: M14 melanoma
MALME-3M melanoma = test system: MALME-3M melanoma
MCF7 breast = test system: MCF7 breast
MDA-MB-231 breast = test system: MDA-MB-231 breast
MDA-MB-435 melanoma = test system: MDA-MB-435 melanoma
MDA-MB-468 breast = test system: MDA-MB-468 breast
MOLT-4 leukemia = test system: MOLT-4 leukemia
NCI-H226 lung = test system: NCI-H226 lung
NCI-H23 lung = test system: NCI-H23 lung
NCI-H322M lung = test system: NCI-H322M lung
NCI-H460 NSCLC = test system: NCI-H460 NSCLC
NCI-H522 lung = test system: NCI-H522 lung
NCI/ADR-RES ovarian = test system: NCI/ADR-RES ovarian
OVCAR-3 ovarian = test system: OVCAR-3 ovarian
OVCAR-4 ovarian = test system: OVCAR-4 ovarian
OVCAR-8 ovarian = test system: OVCAR-8 ovarian
PC-3 prostate = test system: PC-3 prostate
RPMI-8226 leukemia = test system: RPMI-8226 leukemia
RXF 393 renal = test system: RXF 393 renal
SF-268 CNS = test system: SF-268 CNS
SF-295 CNS = test system: SF-295 CNS
SF-539 CNS = test system: SF-539 CNS
SK-MEL-28 melanoma = test system: SK-MEL-28 melanoma
SK-MEL-5 melanoma = test system: SK-MEL-5 melanoma
SK-OV-3 ovarian = test system: SK-OV-3 ovarian
SN12C renal = test system: SN12C renal
SNB-19 CNS = test system: SNB-19 CNS
SNB-75 CNS = test system: SNB-75 CNS
SR leukemia = test system: SR leukemia
SW-620 colon = test system: SW-620 colon
T-47D breast = test system: T-47D breast
TK-10 renal = test system: TK-10 renal
U251 glioblastoma = test system: U251 glioblastoma
UACC-257 melanoma = test system: UACC-257 melanoma
UACC-62 melanoma = test system: UACC-62 melanoma
UO-31 renal = test system: UO-31 renal

`C=CC(=O)Nc1cccc(Nc2nc(Nc3ccc(OCCOC)cc3)ncc2F)c1` showed a GI50 ([…]-0 renal) of 1.68 µM, a TGI (786-0 renal) of 6.51 µM and a GI50 (A498 renal) of 0.493 µM. The TGI (A498 renal) was 1.93 µM, the GI50 (A549 NSCLC) was 2.88 µM and the TGI (A549 NSCLC) was 11.2 µM. It also gave a GI50 (ACHN renal) of 1.01 µM, a TGI (ACHN renal) of 3.51 µM and a GI50 (BT-549 breast) of 0.802 µM. For the same molecule, the TGI (BT-549 breast) was 2.84 µM, the GI50 (CAKI-1 renal) was 0.602 µM and the TGI (CAKI-1 renal) was 2.08 µM. For the same molecule, the GI50 (CCRF-CEM leukemia) was 1.62 µM, the TGI (CCRF-CEM leukemia) was 3.39 µM and the GI50 (COLO 205 colon) was 5.33 µM. It also gave a TGI (COLO 205 colon) of 16.7 µM, a GI50 (DU-145 prostate) of 2.21 µM and a TGI (DU-145 prostate) of 13.5 µM. The GI50 (EKVX NSCLC) was 2.06 µM, the TGI (EKVX NSCLC) was 9.06 µM and the GI50 (HCC-2998 colon) was 2.55 µM. For the same molecule, the TGI (HCC-2998 colon) was 13.7 µM, the GI50 (HCT-116 colon) was 2.5 µM and the TGI (HCT-116 colon) was 12.7 µM. It also gave a GI50 (HCT-15 colon) of 1.97 µM, a TGI (HCT-15 colon) of 12.9 µM and a GI50 (HL-60(TB) leukemia) of 1.21 µM. The TGI (HL-60(TB) leukemia) was 2.64 µM, the GI50 (HOP-62 NSCLC) was 2.9 µM and the TGI (HOP-62 NSCLC) was 11.1 µM. For the same molecule, the GI50 (HOP-92 NSCLC) was 1.82 µM, the TGI (HOP-92 NSCLC) was 9.64 µM and the GI50 (HS 578T breast) was 1.05 µM. It also gave a TGI (HS 578T breast) of 2.85 µM, a GI50 (HT29 colon) of 2.98 µM and a TGI (HT29 colon) of 11.6 µM. It also gave a GI50 (IGROV1 ovarian) of 1 µM, a TGI (IGROV1 ovarian) of 2.28 µM and a GI50 (K-562 leukemia) of 3.73 µM. It also gave a TGI (K-562 leukemia) of 13.6 µM, a GI50 (KM12 colon) of 3.53 µM and a TGI (KM12 colon) of 14.3 µM. The GI50 (LOX IMVI melanoma) was 2.19 µM, the TGI (LOX IMVI melanoma) was 6.05 µM and the GI50 (M14 melanoma) was 1.71 µM. It also gave a TGI (M14 melanoma) of 14.7 µM, a GI50 (MALME-3M melanoma) of 3.64 µM and a TGI (MALME-3M melanoma) of 16.8 µM. It also gave a GI50 (MCF7 breast) of 3.1 µM, a TGI (MCF7 breast) of 14.8 µM and a GI50 (MDA-MB-231 breast) of 2.3 µM. It also gave a TGI (MDA-MB-231 breast) of 14.7 µM, a GI50 (MDA-MB-435 melanoma) of 5.33 µM and a TGI (MDA-MB-435 melanoma) of 17.6 µM. It also gave a GI50 (MDA-MB-468 breast) of 0.562 µM, a TGI (MDA-MB-468 breast) of 1.76 µM and a GI50 (MOLT-4 leukemia) of 1.47 µM. The TGI (MOLT-4 leukemia) was 2.84 µM, the GI50 (NCI-H226 lung) was 1 µM and the TGI (NCI-H226 lung) was 5.79 µM. The GI50 (NCI-H23 lung) was 2.42 µM, the TGI (NCI-H23 lung) was 12.9 µM and the GI50 (NCI-H322M lung) was 1.63 µM. The TGI (NCI-H322M lung) was 8.82 µM, the GI50 (NCI-H460 NSCLC) was 2.02 µM and the TGI (NCI-H460 NSCLC) was 10.3 µM. For the same molecule, the GI50 (NCI-H522 lung) was 1.48 µM, the TGI (NCI-H522 lung) was 4.37 µM and the GI50 (NCI/ADR-RES ovarian) was 2.44 µM. For the same molecule, the TGI (NCI/ADR-RES ovarian) was 6.32 µM, the GI50 (OVCAR-3 ovarian) was 1.22 µM and the TGI (OVCAR-3 ovarian) was 4.74 µM. For the same molecule, the GI50 (OVCAR-4 ovarian) was 10.3 µM, the TGI (OVCAR-4 ovarian) was 22.1 µM and the GI50 (OVCAR-8 ovarian) was 2.51 µM. For the same molecule, the TGI (OVCAR-8 ovarian) was 8.72 µM, the GI50 (PC-3 prostate) was 2.81 µM and the TGI (PC-3 prostate) was 12.6 µM. The GI50 (RPMI-8226 leukemia) was 1.01 µM, the TGI (RPMI-8226 leukemia) was 2.99 µM and the GI50 (RXF 393 renal) was 0.867 µM. For the same molecule, the TGI (RXF 393 renal) was 3.26 µM, the GI50 (SF-268 CNS) was 2.34 µM and the TGI (SF-268 CNS) was 10.5 µM. The GI50 (SF-295 CNS) was 4.9 µM, the TGI (SF-295 CNS) was 17.1 µM and the GI50 (SF-539 CNS) was 1.48 µM. It also gave a TGI (SF-539 CNS) of 3.26 µM, a GI50 (SK-MEL-28 melanoma) of 9.82 µM and a TGI (SK-MEL-28 melanoma) of 21.6 µM. It also gave a GI50 (SK-MEL-5 melanoma) of 4.78 µM, a TGI (SK-MEL-5 melanoma) of 18 µM and a GI50 (SK-OV-3 ovarian) of 0.755 µM. For the same molecule, the TGI (SK-OV-3 ovarian) was 3.02 µM, the GI50 (SN12C renal) was 1.28 µM and the TGI (SN12C renal) was 4.07 µM. It also gave a GI50 (SNB-19 CNS) of 4.01 µM, a TGI (SNB-19 CNS) of 14.6 µM and a GI50 (SNB-75 CNS) of 1.1 µM. For the same molecule, the TGI (SNB-75 CNS) was 2.82 µM, the GI50 (SR leukemia) was 0.933 µM and the TGI (SR leukemia) was 2.66 µM. The GI50 (SW-620 colon) was 1.84 µM, the TGI (SW-620 colon) was 4.16 µM and the GI50 (T-47D breast) was 2.49 µM. For the same molecule, the TGI (T-47D breast) was 13.9 µM, the GI50 (TK-10 renal) was 1.31 µM and the TGI (TK-10 renal) was 3.09 µM. The GI50 (U251 glioblastoma) was 2.86 µM, the TGI (U251 glioblastoma) was 13.1 µM and the GI50 (UACC-257 melanoma) was 6.67 µM. The TGI (UACC-257 melanoma) was 19.3 µM, the GI50 (UACC-62 melanoma) was 1.52 µM and the TGI (UACC-62 melanoma) was 12.8 µM. It also gave a GI50 (UO-31 renal) of 1.17 µM and a TGI (UO-31 renal) of 3.39 µM.
